Data set [1] is described as follows: Molar enthalpy of transition or fusion. The conditions noted are these: Crystal; DSC.
For data set [2] the following is noted: Crystal; DTA.

SMILES strings stand for the structures. ± gives the expanded uncertainty stated by the source.

For the molecule `O=C1OC[C@H]2[C@@H]1N(Cc1ccccc1)C(=O)N2Cc1ccccc1`, in data set [1], the “Molar enthalpy of transition or fusion” value stood at 7.24 ± 0.454 kcal/mol. Besides, the Normal melting temperature in data set [2] is 118.70 ± 1.1 °C.

Source of the values: the NIST ThermoML archive (doi:10.1021/acs.jced.5b00857).
